Data on 36 molecules can be found in patent publication US10807968B2, “Substituted 2-(het)arylimidazolylcarboxyamides as pesticides” (Bayer CropScience Aktiengesellschaft, priority 2016, dated 2020).

Read-outs that look alike come from different tables or passages of the source.

A short description of data set [1]: log P determination by HPLC on reversed-phase (C18) columns, OECD Guideline 117. The note with it: for chromatographic logP: reversed-phase (C18) HPLC column. It counts as physicochemical. On the procedure:
The log P values were determined in accordance with OECD Guideline 117 (EC Directive 92/69/EEC) by HPLC (high-performance liquid chromatography) using reversed-phase (RP) columns (C18), by the following methods:
[a] The LC-MS determination in the acidic range was carried out at pH 2.7 with 0.1% aqueous formic acid and acetonitrile (contains 0.1% formic acid) as mobile phases; linear gradient from 10% acetonitrile to 95% acetonitrile.
[b] LC-MS determination in the neutral range was carried out at pH 7.8 with 0.001 molar aqueous ammonium hydrogencarbonate solution and acetonitrile as mobile phases; linear gradient from 10% acetonitrile to 95% acetonitrile.

In data set [2] the test system is Myzus persicae. Kind of data set: Myzus persicae - spray test (Chinese cabbage leaf discs). It counts as in vivo. The note with it: after 6 days; for pest or weed control at 500 g/ha: Myzus persicae, foliar, 144 h, read-out: efficacy in % (aphids killed). On the procedure:
Myzus persicae—Spray Test
Solvent: 78 parts by weight of acetone • • 1.5 parts by weight of dimethylformamide
Emulsifier: alkylaryl polyglycol ether
To produce a suitable preparation of active compound, 1 part by weight of active compound is dissolved using the specified parts by weight of solvent and made up with water containing an emulsi fier concentration of 1000 ppm until the desired concentration is attained. To produce further test concentrations, the formulation is diluted with emulsifier-containing water.
Discs of Chinese cabbage leaves (Brassica pekinensis) infested by all stages of the green peach aphid (Myzus persicae) are sprayed with an active compound formulation of the desired concentration.
After 6 days, the efficacy in % is determined. 100% means that all the aphids have been killed; 0% means that no aphids have been killed.

For data set [3], the system named is Myzus persicae. In words: Myzus persicae - oral test. It counts as in vivo. The conditions noted are these: after 5 days; for pest or weed control at 20 ppm: Myzus persicae, 120 h, read-out: efficacy in % (aphids killed); for efficacy in % (aphids killed): 20 ppm. The procedure: Solvent: 100 parts by weight of acetone
Subsequently, the plates are sealed with parafilm, which a mixed population of green peach aphids (Myzus persicae) within a second microtitre plate is able to puncture and imbibe the solution through it.
After 5 days, the efficacy in % is determined. 100% means that all the aphids have been killed; 0% means that no aphids have been killed.

Setting [4] is: pH 2.7, HPLC, acidic range pH 2.7, 0.1% aqueous formic acid/acetonitrile, read-out: logp-acidic.
The mark [5] stands for this setting: pH 7.8, HPLC, neutral range pH 7.8, 0.001 molar aqueous ammonium hydrogencarbonate/acetonitrile, read-out: logp-neutral.
Setting [6] is: HPLC, acidic range pH 2.7, 0.1% aqueous formic acid/acetonitrile.
The mark [7] stands for this setting: HPLC, neutral range pH 7.8, 0.001 molar aqueous ammonium hydrogencarbonate/acetonitrile.

As to `Cc1cc(F)c(-c2ncc(C(=O)N(C)c3cccnc3)n2C)cc1SCC(F)(F)F` [Example 2], the figures for the chromatographic logP in data set [1] (setting [4]) and in data set [1] (setting [5]) were 2.23 and 2.48, respectively. In data set [2] (500 g/ha), the pest or weed control at 500 g/ha worked out at 90%. Moreover, the pest or weed control at 20 ppm in data set [3] stood at 100%.
Take `CSc1cccc(-c2ncc(C(=O)N(C)c3cccnc3)n2C)c1` [Example 3]: the logp-acidic in data set [1] (pH 2.7) turned out to be 1.24. The molecule further registered a logp-neutral in data set [1] (pH 7.8) of 1.75. For the same molecule, the “efficacy in % (aphids killed)” value was 90% in data set [2] (500 g/ha) and 100% in data set [3].
Turning to `CN(C(=O)c1cnc(-c2cccc([S+]([O-])CC(F)(F)F)c2)n1C)c1cccnc1` (stereo not shown) [Example 5], in data set [1] (pH 2.7), the logp-acidic is reported as 1.07. Also, the logp-neutral in data set [1] (pH 7.8) was 1.43. The “efficacy in % (aphids killed)” value in data set [2] (500 g/ha) is recorded as 90%; in data set [3], 100%.
For `CN(C(=O)c1cnc(-c2cccnc2)n1C)c1cccnc1` [Example 7], in data set [1] (setting [4]), the chromatographic logP was 0.18. For the same molecule, in data set [2] (500 g/ha), the pest or weed control at 500 g/ha was 90%. Also, the pest or weed control at 20 ppm in data set [3] was 100%.
Molecule `Cc1cc(C)cc(-c2ncc(C(=O)N(C)c3cccnc3)n2C)c1` [Example 8] yielded a logp-acidic in data set [1] (setting [6]) of 1.16. The “efficacy in % (aphids killed)” value in data set [2] (100 g/ha) is reported as 90%; in data set [3], 100%.
Molecule `CN(C(=O)c1cnc(-c2ccccc2Cl)n1C)c1cccnc1` [Example 9] gave a logp-acidic in data set [1] (setting [6]) of 1.10. The “efficacy in % (aphids killed)” value in data set [2] (500 g/ha) and in data set [3] was 100% in each case.
On to `CN(C(=O)c1cnc(-c2cccc(Cl)c2)n1C)c1cccnc1` [Example 10], for which, in data set [1] (setting [6]), the logp-acidic is on record as 1.29. In addition, the “efficacy in % (aphids killed)” value is 90% in data set [2] (500 g/ha) and 100% in data set [3].
On the same counts, the results for `CN(C(=O)c1cnc(-c2ccc(Cl)c(Cl)c2)n1C)c1cccnc1` [Example 13] are 1.79, 90% and 100%.
Turning to `CN(C(=O)c1cnc(-c2cccn2C)n1C)c1cccnc1` [Example 14], the chromatographic logP in data set [1] (setting [4]) worked out at 0.62. The pest or weed control at 500 g/ha in data set [2] (500 g/ha) worked out at 90%. Also, in data set [3], the pest or weed control at 20 ppm stood at 100%.
`CN(C(=O)c1cnc(-c2ccoc2)n1C)c1cccnc1` [Example 15] had a logp-acidic in data set [1] (setting [6]) of 0.29. For the same molecule, the entries for the “efficacy in % (aphids killed)” value in data set [2] (500 g/ha) and in data set [3] were 90% and 100%, respectively.
For the molecule `CN(C(=O)c1cnc(-c2cccc(SC(F)(F)F)c2)n1C)c1cccnc1` [Example 17], in data set [1] (pH 2.7), the logp-acidic came out at 2.00. In addition, in data set [1] (pH 7.8), the logp-neutral is given as 2.28. The “efficacy in % (aphids killed)” value was determined as 90% in data set [2] (500 g/ha) and 100% in data set [3].
On the same counts, the results for `CN(C(=O)c1cnc(-c2cccc(SCC3CC3)c2)n1C)c1cccnc1` [Example 18] are 1.87, 2.36, 90% and 100%.
In the case of `COCc1cccc(-c2ncc(C(=O)N(C)c3cccnc3)n2C)c1` [Example 19], in data set [1] (setting [6]), the logp-acidic stood at 0.86. For the same molecule, the logp-neutral in data set [1] (setting [7]) came out at 1.43. Besides, the “efficacy in % (aphids killed)” value in data set [2] (500 g/ha) and in data set [3] was 90% in each case.
Regarding `CN(C(=O)c1cnc(-c2cccc(COC3CCOCC3)c2)n1C)c1cccnc1` [Example 20], the chromatographic logP turned out to be 1.11 in data set [1] (setting [4]) and 1.57 in data set [1] (setting [5]). Moreover, the pest or weed control at 500 g/ha in data set [2] (500 g/ha) turned out to be 90%.
Take `CN(C(=O)c1cnc(-c2cccc(S(C)(=O)=O)c2)n1C)c1cccnc1` [Example 22]: in data set [1] (pH 2.7), the logp-acidic stood at 0.75. This molecule had a logp-neutral in data set [1] (pH 7.8) of 1.08. Also, the “efficacy in % (aphids killed)” value in data set [2] (500 g/ha) and in data set [3] was 100% throughout.
Regarding `CSc1cc(-c2ncc(C(=O)N(C)c3cccnc3)n2C)ccc1C` [Example 23], in data set [1] (pH 2.7), the logp-acidic turned out to be 1.43. For the same molecule, in data set [1] (pH 7.8), the logp-neutral came to 2.03. Further, the “efficacy in % (aphids killed)” value in data set [2] (500 g/ha) and in data set [3] was 100% each time.
`CN(C(=O)c1cnc(-c2cnn(-c3ccccc3C#N)c2)n1C)c1cccnc1` [Example 24] gave a logp-acidic in data set [1] (pH 2.7) of 1.07. The molecule further returned a logp-neutral in data set [1] (pH 7.8) of 1.49. Besides, the “efficacy in % (aphids killed)” value in data set [2] (500 g/ha) is given as 90%; in data set [3], 100%.
On to `CN(C(=O)c1cnc(-c2cnn(-c3ccc(F)cc3)c2)n1C)c1cccnc1` [Example 25], for which the logp-acidic in data set [1] (pH 2.7) came to 1.21. For the same molecule, the logp-neutral in data set [1] (pH 7.8) was 1.68. In addition, the “efficacy in % (aphids killed)” value is on record as 90% in data set [2] (500 g/ha) and 100% in data set [3].
On the same counts, the results for `CN(C(=O)c1cnc(-c2cnn(-c3ccccc3)c2)n1C)c1cccnc1` [Example 26] are 1.19, 1.70, 90% and 100%.
For `CN(C(=O)c1cnc(-c2cccc3ccccc23)n1C)c1cccnc1` [Example 27], the logp-acidic in data set [1] (pH 2.7) turned out to be 1.35. Also, the logp-neutral in data set [1] (pH 7.8) is recorded as 1.89. For the same molecule, the results for the “efficacy in % (aphids killed)” value in data set [2] (500 g/ha) and in data set [3] were 90% and 100%, respectively.
On the same counts, the results for `COC(=O)c1cccc2c(-c3ncc(C(=O)N(C)c4cccnc4)n3C)cccc12` [Example 28] are 1.56, 1.95, 90% and 100%.
On the same counts, the results for `COC(=O)c1cc(F)ccc1-c1ncc(C(=O)N(C)c2cccnc2)n1C` [Example 29] are 1.04, 1.55, 90% and 100%.
On the same counts, the results for `CN(C(=O)c1cnc(-c2ccc(F)c3ccccc23)n1C)c1cccnc1` [Example 30] are 1.57, 2.05, 90% and 100%.
Regarding `CN(C(=O)c1cnc(-c2ccncc2)n1C)c1cccnc1` [Example 33], the pest or weed control at 500 g/ha in data set [2] (500 g/ha) was 100%. The pest or weed control at 20 ppm in data set [3] turned out to be 100%.
In data set [1] (pH 2.7), `CCOC(=O)COc1cccc(-c2ncc(C(=O)N(C)c3cccnc3)n2C)c1` [Example 41] yielded a logp-acidic of 1.18. The molecule further showed a logp-neutral in data set [1] (pH 7.8) of 1.70.
Turning to `CCOC(=O)COc1cc(-c2ncc(C(=O)N(C)c3cccnc3)n2C)cc(F)c1F` [Example 42], the logp-acidic in data set [1] (pH 2.7) amounted to 1.80. In data set [1] (pH 7.8), this molecule came in with a logp-neutral of 2.02.
Turning to `CCOC(=O)COc1cc(-c2ncc(C(=O)N(C)c3cccnc3)n2C)ccc1F` [Example 43], the logp-acidic in data set [1] (pH 2.7) is given as 1.44.
In data set [1] (pH 2.7), `COc1ccc(OC)c(-c2ncc(C(=O)N(C)c3cccnc3)n2C)c1` [Example 85] displayed a logp-acidic of 0.9. Further, in data set [3], the “efficacy in % (aphids killed)” value stood at 100%.
`COc1ccc(-c2ncc(C(=O)N(C)c3cccnc3)n2C)cc1[N+](=O)[O-]` [Example 96] came in with a logp-acidic in data set [1] (setting [6]) of 1.2. In data set [1] (setting [7]), this molecule showed a logp-neutral of 1.53.
`CSc1ccccc1-c1ncc(C(=O)N(C)c2cccnc2)n1C` [Example 98] had a logp-acidic in data set [1] (pH 2.7) of 1.14. Also, in data set [1] (pH 7.8), the logp-neutral came to 1.59. Besides, the “efficacy in % (aphids killed)” value in data set [3] is reported as 100%.
In the case of `CCN(C(=O)c1cncn1C)c1cccnc1` [VII-ethyl], in data set [1] (setting [5]), the chromatographic logP is 0.78.
On to `C#Cc1ncc(C(=O)N(C)c2cccnc2)n1C` [XIV, 2-ethynyl-N,1-dimethyl-N-(pyridin-3-yl)-1H-imidazole-5-carboxamide], for which the chromatographic logP came to 0.53 in data set [1] (setting [4]) and 0.87 in data set [1] (setting [5]).
On the same counts, the results for `Cc1cc(F)c(-c2ncc(C(=O)O)n2C)cc1SCC(F)(F)F` [XIX] are 1.83 and 0.95.
On the same counts, the results for `CN(C(=O)c1cnc(Br)n1C)c1cccnc1` [XI] are 0.65 and 0.93.
On the same counts, the results for `Cc1cc(F)c(B2OC(C)(C)C(C)(C)O2)cc1SCC(F)(F)F` [XVI, 2-{2-fluoro-4-methyl-5-[(2,2,2-trifluoroethyl)sulphanyl]phenyl}-4,4,5,5-tetramethyl-1,3,2-dioxaborolane] are 4.89 and 4.8.
With `COC(=O)c1cnc(-c2cc(SCC(F)(F)F)c(C)cc2F)n1C` [XVIII, methyl 2-{2-fluoro-4-methyl-5-[(2,2,2-trifluoroethyl)sulphanyl]phenyl}-1-methyl-1H-imidazole-5-carboxylate], the chromatographic logP in data set [1] (setting [4]) came to 3.09; in data set [1] (setting [5]), 3.19.
